Measured values published in patent US20110306606A1, “NOVEL 2,6-SUBSTITUTED-3-NITROPYRIDINE DERIVATIVE, METHOD FOR PREPARING SAME, AND PHARMACEUTICAL COMPOSITION INCLUDING SAME” (priority 2008, published 2011).
Read-outs that look alike come from different tables or passages of the source.

Tests used:
[1] = system: Osteoblasts (Calvarial cells); test: Cytotoxicity test (MTT); settings: 1 μM compound, 72 hours, in comparison with vehicle control
[2] = system: Osteoblasts (Calvarial cells); test: Alkaline phosphatase (ALP) activity in osteoblasts (Calvarial cells); format: cell-based, mice; settings: 1 μM compound, 3 days; for activity at 1 µM: Mus musculus, 72 h, Calvarial cell, read-out: ALP activity (1 μM, % of Control) Calvarial cell
Procedure: Differentiation and activity of osteoblasts were indirectly evaluated by measuring an ALP activity having a close relationship with osteogenesis.
Osteoblasts (Calvarial cells) prepared in Experimental Example 1 and MC3T3-E1 cells (available from RIKEN Cell Bank, Japan) were collected in α-MEM supplemented with 10% FBS, followed by cell counting. The cells were dispensed into 24-well cultureware at a density of 2×10^4 cells/well. After culturing of the cells for 24 hours, the culture media were discarded and replaced with fresh media in which test compounds were diluted to a concentration of 1 μM (1 mL/well). In addition, the vehicle control group containing 0.1% DMSO was also treated. […] When the experiment was terminated, the supernatant was removed and the cells were washed three times with cold phosphate buffer at 4°. 0.2% Triton X-100 was added to the washed cells which were then subjected to three cycles of freezing at −70° and thawing at room temperature for the complete lysis of cells. The cell extracts were pooled and centrifuged to collect the cell supernatant which was used for the measurement of ALP activity and proteins. The protein concentration was measured using a BCA assay kit (manufactured by Sigma-Aldrich). For the measurement of ALP activity, p-nitrophenylphosphate was added to the cell supernatant which was then incubated at 37° for 30 minutes, and the reaction was terminated with the addition of 50 μL of 0.2N sodium hydroxide. The standard curve was plotted at the absorbance of 405 nm using p-nitrophenol as a standard material and then the absorbance of test materials thus reacted was measured to determine the production amount of p-nitrophenol.
The ALP activity was calculated by dividing the amount of p-nitrophenol produced from each test material by the protein amount and the reaction time. Therefore, the unit of ALP activity was given in terms of p-nitrophenol/μg protein/min. The results are given in Tables 28-1 and 28-2 where the ALP activity unit of each test material was given in terms of % change through the comparison between the individual test materials and the vehicle control group.

[3] = system: Osteoblasts (Calvarial cells); settings: ICR, mouse, 72 h, 1 μM

CC1=NCCN1c1ccc([N+](=O)[O-])c(Nc2ccc(C)cc2)n1 [Compound 6, 2-(4-methylphenylamino)-6-[(2-methyl-4,5-dihydro)imidazol-1-yl]-3-nitropyridine]
Cell viability (%) Calvarial cell [1]: 94% | ALP activity (1 μM, % of Control) Calvarial cell [2]: 116 % of Control

Cc1ccc(Nc2nc(N3CCOCC3)ccc2[N+](=O)[O-])cc1 [Compound 14, 2-(4-methylphenylamino)-6-morpholino-3-nitropyridine]
Cell viability (%) Calvarial cell [3]: 99% | activity at 1 µM [2]: 135%

CC(C)Nc1ccc([N+](=O)[O-])c(Nc2ccc(C(C)(C)C)cc2)n1 [Compound 31, 2-[4-(t-butyl)phenylamino]-6-(isopropylamino)-3-nitropyridine]
Cell viability (%) Calvarial cell [3]: 108% | activity at 1 µM [2]: 134%

CC1=NCCN1c1ccc([N+](=O)[O-])c(Nc2ccc(C(C)(C)C)cc2)n1 [Compound 35, 2-[4-(t-butyl)phenylamino]-6-[(2-methyl-4,5-dihydro)imidazol-1-yl]-3-nitropyridine]
Cell viability (%) Calvarial cell [1]: 96% | ALP activity (1 μM, % of Control) Calvarial cell [2]: 132 % of Control

CCN(CCO)c1ccc([N+](=O)[O-])c(Nc2ccc(C#N)cc2)n1 [Compound 51, 2-(4-cyanophenylamino)-6-[(N-ethyl-2-hydroxy)ethylamino]-3-nitropyridine]
Cell viability (%) Calvarial cell [1]: 100% | ALP activity (1 μM, % of Control) Calvarial cell [2]: 116 % of Control

CNc1ccc([N+](=O)[O-])c(Nc2ccc(N)cc2)n1 [Compound 57, 2-[4-(amino)phenylamino]-6-(methylamino)-3-nitropyridine]
Cell viability (%) Calvarial cell [3]: 103% | activity at 1 µM [2]: 112%

CC(C)Nc1ccc([N+](=O)[O-])c(Nc2ccc(N)cc2)n1 [Compound 58, 2-[4-(amino)phenylamino]-6-(isopropylamino)-3-nitropyridine]
Cell viability (%) Calvarial cell [3]: 107% | activity at 1 µM [2]: 127%

CC(C)(C)Nc1ccc([N+](=O)[O-])c(Nc2ccc(N)cc2)n1 [Compound 60, 2-[4-(amino)phenylamino]-6-(t-butylamino)-3-nitropyridine]
Cell viability (%) Calvarial cell [3]: 119% | activity at 1 µM [2]: 131%

Nc1cccc(Nc2nc(N3CCC(N)CC3)ccc2[N+](=O)[O-])c1 [Compound 79, 2-[3-(amino)phenylamino]-6-(4-aminopiperidino)-3-nitropyridine]
Cell viability (%) Calvarial cell [3]: 99% | activity at 1 µM [2]: 133%

Nc1cccc(Nc2nc(NCc3cccnc3)ccc2[N+](=O)[O-])c1 [Compound 80, 2-[3-(amino)phenylamino]-6-[(3-pyridyl)methylamino]-3-nitropyridine]
Cell viability (%) Calvarial cell [3]: 102% | activity at 1 µM [2]: 116%

Nc1cccc(Nc2nc(NCc3ccncc3)ccc2[N+](=O)[O-])c1 [Compound 81, 2-[3-(amino)phenylamino]-6-[(4-pyridyl)methylamino]-3-nitropyridine]
Cell viability (%) Calvarial cell [3]: 100% | activity at 1 µM [2]: 123%

CNc1ccc([N+](=O)[O-])c(Nc2ccc(-n3ccnc3)cc2)n1 [Compound 86, 2-[4-(imidazol-1-yl)phenylamino]-6-(methylamino)-3-nitropyridine]
Cell viability (%) Calvarial cell [3]: 111% | activity at 1 µM [2]: 144%

CC(C)Nc1ccc([N+](=O)[O-])c(Nc2ccc(-n3ccnc3)cc2)n1 [Compound 87, 2-[4-(imidazol-1-yl)phenylamino]-6-(isopropylamino)-3-nitropyridine]
Cell viability (%) Calvarial cell [3]: 101% | activity at 1 µM [2]: 116%

O=[N+]([O-])c1ccc(N2CCC(O)CC2)nc1Nc1ccc(-n2ccnc2)cc1 [Compound 90, 2-[4-(imidazol-1-yl)phenylamino]-6-(4-hydroxypiperidino)-3-nitropyridine]
Cell viability (%) Calvarial cell [3]: 106% | activity at 1 µM [2]: 161%

CC(=O)c1cccc(Nc2nc(N3CCC(O)CC3)ccc2[N+](=O)[O-])c1 [Compound 99, 2-(3-acetylphenylamino)-6-(4-hydroxypiperidino)-3-nitropyridine]
Cell viability (%) Calvarial cell [3]: 104% | activity at 1 µM [2]: 189%

CCN(CCO)c1ccc([N+](=O)[O-])c(Nc2ccc(N3CCOCC3)cc2)n1 [Compound 118, 2-(4-morpholinophenylamino)-6-[(N-ethyl-2-hydroxy)ethylamino]-3-nitropyridine]
Cell viability (%) Calvarial cell [1]: 102% | ALP activity (1 μM, % of Control) Calvarial cell [2]: 111 % of Control

O=[N+]([O-])c1ccc(NCCc2ccccn2)nc1Nc1ccc(-c2csc(C3CCCCC3)n2)cc1 [Compound 164, 2-[4-(2-cyclohexylthiazol-4-yl)phenylamino]-6-[2-(2-pyridyl)ethylamino]-3-nitropyridine]
Cell viability (%) Calvarial cell [3]: 104%

CCCCNc1ccc([N+](=O)[O-])c(Nc2ccc(-c3csc(C4CCCCC4)n3)cc2)n1 [Compound 165, 2-[4-(2-cyclohexylthiazol-4-yl)phenylamino]-6-(n-butylamino)-3-nitropyridine]
Cell viability (%) Calvarial cell [3]: 102%

CNc1ccc([N+](=O)[O-])c(Nc2ccc(N3CCOCC3)c(F)c2)n1 [Compound 191, 2-[(3-fluoro-4-morpholino)phenylamino]-6-(methylamino)-3-nitropyridine]
Cell viability (%) Calvarial cell [1]: 97% | ALP activity (1 μM, % of Control) Calvarial cell [2]: 156 % of Control

CC(C)Nc1ccc([N+](=O)[O-])c(Nc2ccc(N3CCOCC3)c(F)c2)n1 [Compound 192, 2-[(3-fluoro-4-morpholino)phenylamino]-6-(isopropylamino)-3-nitropyridine]
Cell viability (%) Calvarial cell [1]: 99% | ALP activity (1 μM, % of Control) Calvarial cell [2]: 113 % of Control

CNc1ccc([N+](=O)[O-])c(Nc2ccc(N3CCSCC3)c(F)c2)n1 [Compound 203, 2-[(3-fluoro-4-thiomorpholino)phenylamino]-6-(methylamino)-3-nitropyridine]
Cell viability (%) Calvarial cell [1]: 97% | ALP activity (1 μM, % of Control) Calvarial cell [2]: 154 % of Control

CC(C)CNc1ccc([N+](=O)[O-])c(Nc2ccc(N3CCSCC3)c(F)c2)n1 [Compound 205, 2-[(3-fluoro-4-thiomorpholino)phenylamino]-6-(isobutylamino)-3-nitropyridine]
Cell viability (%) Calvarial cell [1]: 109% | ALP activity (1 μM, % of Control) Calvarial cell [2]: 132 % of Control

O=[N+]([O-])c1ccc(N2CCC(O)CC2)nc1Nc1ccc(N2CCSCC2)c(F)c1 [Compound 206, 2-[(3-fluoro-4-thiomorpholino)phenylamino]-6-(4-hydroxypiperidino)-3-nitropyridine]
Cell viability (%) Calvarial cell [1]: 102% | ALP activity (1 μM, % of Control) Calvarial cell [2]: 124 % of Control

CC(C)Nc1ccc([N+](=O)[O-])c(Nc2ccc(N3CCCCC3)c(F)c2)n1 [Compound 224, 2-[(3-fluoro-4-piperidino)phenylamino]-6-(isopropylamino)-3-nitropyridine]
Cell viability (%) Calvarial cell [1]: 101% | ALP activity (1 μM, % of Control) Calvarial cell [2]: 125 % of Control

CC(C)Nc1ccc([N+](=O)[O-])c(Nc2ccc(N3CCC(O)CC3)c(F)c2)n1 [Compound 237, 2-{[3-fluoro-4-(4-hydroxypiperidino)]phenylamino}-6-(isopropylamino)-3-nitropyridine]
Cell viability (%) Calvarial cell [1]: 99% | ALP activity (1 μM, % of Control) Calvarial cell [2]: 117 % of Control

O=[N+]([O-])c1ccc(N2CCC(O)CC2)nc1Nc1ccc(N2CCC(O)CC2)c(F)c1 [Compound 239, 2-{[3-fluoro-4-(4-hydroxypiperidino)]phenylamino}-6-(4-hydroxypiperidino)-3-nitropyridine]
Cell viability (%) Calvarial cell [1]: 98% | ALP activity (1 μM, % of Control) Calvarial cell [2]: 130 % of Control

CC1=NCCN1c1ccc([N+](=O)[O-])c(Nc2ccc(N3CCC(N)CC3)c(F)c2)n1 [Compound 252, 2-{[3-fluoro-4-(4-aminopiperidino)]phenylamino}-6-[(2-methyl-4,5-dihydro)imidazol-1-yl]-3-nitropyridine]
Cell viability (%) Calvarial cell [1]: 103% | ALP activity (1 μM, % of Control) Calvarial cell [2]: 112 % of Control

NC1CCN(c2ccc(Nc3nc(N4CCNCC4)ccc3[N+](=O)[O-])cc2F)CC1 [Compound 253, 2-{[3-fluoro-4-(4-aminopiperidino)]phenylamino}-6-(piperazin-1-yl)-3-nitropyridine]
Cell viability (%) Calvarial cell [1]: 104% | ALP activity (1 μM, % of Control) Calvarial cell [2]: 115 % of Control

NC1CCN(c2ccc(Nc3nc(NCc4cccnc4)ccc3[N+](=O)[O-])cc2F)CC1 [Compound 257, 2-{[3-fluoro-4-(4-aminopiperidino)]phenylamino}-6-[(3-pyridyl)methylamino]-3-nitropyridine]
Cell viability (%) Calvarial cell [1]: 101% | ALP activity (1 μM, % of Control) Calvarial cell [2]: 122 % of Control

NC1CCN(c2ccc(Nc3nc(NCc4ccncc4)ccc3[N+](=O)[O-])cc2F)CC1 [Compound 258, 2-{[3-fluoro-4-(4-aminopiperidino)]phenylamino}-6-[(4-pyridyl)methylamino]-3-nitropyridine]
Cell viability (%) Calvarial cell [1]: 101% | ALP activity (1 μM, % of Control) Calvarial cell [2]: 115 % of Control
